Source: US20030229451A1, “Methods and systems for analyzing complex biological systems” (priority 2001, published 2003)

Tested on: Saccharomyces cerevisiae wild type strain BY4743
Test: AF1 metabolite analysis (GC-MS, LC-MS) of yeast cells treated with antifungal drugs
Format: cell-based
Conditions: for # Compounds perturbed: 2x MIC, two hours

Structure (SMILES): C[C@@H]1[C@H](O)[C@@H](C)/C=C/C=C/C=C/C=C/C=C/C=C/C=C/[C@H](O[C@@H]2O[C@H](C)[C@@H](O)[C@H](N)[C@@H]2O)C[C@@H]2O[C@](O)(C[C@@H](O)C[C@@H](O)[C@H](O)CC[C@@H](O)C[C@@H](O)CC(=O)O[C@H]1C)C[C@H](O)[C@H]2C(=O)O [Amphoteracin B]
- # Compounds perturbed (P < 0.05): 16
- # Compounds perturbed (P < 0.1): 21
- Fold Change (platform GC): −0.933
- Fold Change, TMS mevalonic acid lactone (platform GC): −0.9767
- Fold Change, alanine (platform GC): −0.7773
- Fold Change, asparagine (platform GC): −1
- Fold Change, aspartic acid (platform GC): −0.9743
- Fold Change, campesterol (platform GC): 0
- Fold Change, desmosterol (platform GC): 0
- Fold Change, disaccaride1 (platform GC): −1
- Fold Change, disaccaride2 (platform GC): −0.9977
- Fold Change, disaccaride3 (platform GC): −0.9977
- Fold Change, ergosterol (platform GC): 2.303
- Fold Change, fucosterol (platform GC): −0.6553
- Fold Change, glutamine (platform GC): −0.9116
- Fold Change, glycanopyrose (platform GC): −0.958
- Fold Change, glycerol (platform GC): −0.815
- Fold Change, glycine (platform GC): 0.8807
- Fold Change, hexadecanoic acid (platform GC): −0.2427
- Fold Change, iso citric acid (platform GC): −0.6183
- Fold Change, isoleucine (platform GC): −0.9533
- Fold Change, lanosterol (platform GC): −1
- Fold Change, leucine (platform GC): −0.9443
- Fold Change, lysine (platform GC): −0.3925
- Fold Change, malic acid (platform GC): −0.963
- Fold Change, mevalonic acid lactone (platform GC): −0.1276
- Fold Change, octadecanoic acid (platform GC): 0.21
- Fold Change, oleic acid (platform GC): −0.4593
- Fold Change, ornithine2 (platform GC): −1
- Fold Change, ornithine3 (platform GC): −0.9853
- Fold Change, palmiteliadic acid (platform GC): 0.515
- Fold Change, phenylalanine (platform GC): −0.9797
- Fold Change, phosphate (platform GC): −0.007333
- Fold Change, pyrimidine (platform GC): −0.185
- Fold Change, squalene (platform GC): −0.5745
- Fold Change, tetradecanoic acid (platform GC): 0.07967
- Fold Change, threonine2 (platform GC): −0.8553
- Fold Change, threonine3 (platform GC): −0.8933
- Fold Change, tms glutamine3 (platform GC): −0.8935
- Fold Change, tms lysine4 (platform GC): −0.9783
- Fold Change, tms tyrosine2 (platform GC): −0.3593
- Fold Change, tms tyrosine3 (platform GC): −0.9473
- Fold Change, valine (platform GC): −0.8673
- Fold Change, 2-ketobutyric acid (platform nLC): −0.9992
- Fold Change, 2-ketoglutaric (platform nLC): 8.791
- Fold Change, 3-indolylacetonitri (platform nLC): −0.9998
- Fold Change, 4-methylcatechol (platform nLC): 0
- Fold Change, 4aminobutyrate/dimg (platform nLC): −0.1983
- Fold Change, 5hydroxyLtryptophan (platform nLC): 0
- Fold Change, 6-benzylaminopurine (platform nLC): 0
- Fold Change, DLaminoadipic acid (platform nLC): 1.411
- Fold Change, NacetylDglucosamine (platform nLC): 0
- Fold Change, NacetylLglutamate (platform nLC): −0.1078
- Fold Change, NacetylLornithine (platform nLC): 0
- Fold Change, abscisic acid (platform nLC): 0
- Fold Change, aconitic acid (platform nLC): 0.5426
- Fold Change, adenine (platform nLC): 0
- Fold Change, adenosine (platform nLC): 0
- Fold Change, alanine (platform nLC): 0.1599
- Fold Change, allantoic acid (platform nLC): −0.1456
- Fold Change, allantoin (platform nLC): 3.97
- Fold Change, anthranilic acid (platform nLC): 0
- Fold Change, arginine (platform nLC): −0.4885
- Fold Change, argininosuccinate (platform nLC): 0
- Fold Change, asparagine (platform nLC): 0.1511
- Fold Change, aspartic (platform nLC): 0.2407
- Fold Change, benzoic acid (platform nLC): 0
- Fold Change, biotin (platform nLC): 1.077
- Fold Change, caffeic acid (platform nLC): −0.5882
- Fold Change, catechol (platform nLC): 0
- Fold Change, cinnamic acid (platform nLC): 0
- Fold Change, citricanoic/itaconi. (platform nLC): 0
- Fold Change, citrulline (platform nLC): 1659
- Fold Change, coumaric acid (platform nLC): 0
- Fold Change, cytidine (platform nLC): −0.9986
- Fold Change, cytosine (platform nLC): 0
- Fold Change, decanoic acid (platform nLC): −0.08716
- Fold Change, diaminopimelic acid (platform nLC): 0
- Fold Change, dihydrofolic acid (platform nLC): 0
- Fold Change, estrone (platform nLC): 0
- Fold Change, farnesol (platform nLC): 0
- Fold Change, folic acid (platform nLC): 0
- Fold Change, fumaric/3m2oxobutan (platform nLC): 0.4423
- Fold Change, gallic acid (platform nLC): 0.1622
- Fold Change, gibberellic (platform nLC): 0
- Fold Change, glucosamine6PO4 (platform nLC): −0.9951
- Fold Change, glutamic/acetylseri (platform nLC): 0.1414
- Fold Change, glutamine/lysine (platform nLC): 0.07919
- Fold Change, guanine (platform nLC): 0
- Fold Change, guanosine (platform nLC): 1.131
- Fold Change, histidine (platform nLC): 0
- Fold Change, homogentisic/uric (platform nLC): 0
- Fold Change, hydrocortisone (platform nLC): 0
- Fold Change, hypoxanthine (platform nLC): 0.1655
- Fold Change, indole3pyruvic acid (platform nLC): 0
- Fold Change, inostol/glucos/sorb (platform nLC): −0.5905
- Fold Change, isocitric/citric/qu (platform nLC): 2.549
- Fold Change, jasmonic acid (platform nLC): 0
- Fold Change, kinetin (platform nLC): 0
- Fold Change, lactic acid (platform nLC): −0.02583
- Fold Change, lauric acid (platform nLC): 0.1225
- Fold Change, leucine/isoleucine/ (platform nLC): 0.1319
- Fold Change, luteolin (platform nLC): 0
- Fold Change, malic acid (platform nLC): 0.6212
- Fold Change, malonic acid (platform nLC): 0
- Fold Change, menthol* (platform nLC): −0.07013
- Fold Change, methionine (platform nLC): 0
- Fold Change, nicotinic acid (platform nLC): 0.3131
- Fold Change, nopaline (platform nLC): 0.3342
- Fold Change, oleic acid (platform nLC): 0.689
- Fold Change, ornithine (platform nLC): 2.534
- Fold Change, orotic acid (platform nLC): 8380
- Fold Change, palmitic acid (platform nLC): 0.3979
- Fold Change, phenylalanine (platform nLC): −0.1906
- Fold Change, phenylpyruvic acid (platform nLC): 0
- Fold Change, phosphoenolpyruvate (platform nLC): 0
- Fold Change, pinitol (platform nLC): 0
- Fold Change, pipecolic acid (platform nLC): 0.08112
- Fold Change, porphobilinogen (platform nLC): 0
- Fold Change, proline (platform nLC): 0.4603
- Fold Change, pyridoxine (platform nLC): −0.1294
- Fold Change, retinoic acid (platform nLC): 0
- Fold Change, salicylic/HObenzoic (platform nLC): 0
- Fold Change, selenoDLmethionine (platform nLC): 0.8515
- Fold Change, serine (platform nLC): 0.1091
- Fold Change, shikimic acid (platform nLC): 0
- Fold Change, sinapinic acid (platform nLC): 0
- Fold Change, sorbitol/mannitol (platform nLC): 0.2162
- Fold Change, succinic (platform nLC): 0.8663
- Fold Change, sucrose (platform nLC): 0.4493
- Fold Change, sugar-phosphate (platform nLC): −0.1067
- Fold Change, tetradecanoic acid (platform nLC): −0.07723
- Fold Change, threonine/homoserin (platform nLC): 0.1267
- Fold Change, thymine (platform nLC): 0
- Fold Change, tryptophan (platform nLC): 1.142
- Fold Change, tyrosine (platform nLC): 0.0982
- Fold Change, uracil (platform nLC): 1.511
- Fold Change, uridine (platform nLC): 0.1126
- Fold Change, urocanic acid (platform nLC): 0
- Fold Change, valine (platform nLC): 0.1624
- Fold Change, xanthosineDiH2O (platform nLC): 0
- Fold Change, zeatin (platform nLC): 0
- Fold Change, 4-aminobenzoic acid (platform pLC): 0
- Fold Change, 4-methylcatechol (platform pLC): 0
- Fold Change, 4ambutyrate/dimglyc (platform pLC): 0.01279
- Fold Change, 5hydroxyLtryptophan (platform pLC): 0
- Fold Change, 6benzylaminopurine (platform pLC): 0
- Fold Change, DL-aminoadipic acid (platform pLC): 0.4703
- Fold Change, NacetylDglucosamine (platform pLC): 0
- Fold Change, NacetylLglutamate (platform pLC): 0
- Fold Change, NacetylLornithine (platform pLC): 1.319
- Fold Change, abscisic acid (platform pLC): 0
- Fold Change, adenine (platform pLC): 0.1153
- Fold Change, adenosine (platform pLC): 0
- Fold Change, alanine/sarcosine (platform pLC): 0.2602
- Fold Change, allantoic acid (platform pLC): 0
- Fold Change, anthranilic acid (platform pLC): 0
- Fold Change, arginine (platform pLC): 0.4662
- Fold Change, argininosuccinate (platform pLC): 0
- Fold Change, asparagine (platform pLC): 0.6344
- Fold Change, aspartic acid (platform pLC): 0.3594
- Fold Change, biotin (platform pLC): 0
- Fold Change, caffeine (platform pLC): 0
- Fold Change, citric acid TME (platform pLC): 0
- Fold Change, citrulline (platform pLC): 1.798
- Fold Change, cytidine (platform pLC): 0
- Fold Change, cytosine (platform pLC): 0
- Fold Change, diaminopimelic acid (platform pLC): 0
- Fold Change, dihydrofolic acid (platform pLC): 0
- Fold Change, dipicolinic acid (platform pLC): 0
- Fold Change, folic acid (platform pLC): 0
- Fold Change, glucosamine (platform pLC): 0
- Fold Change, glucosamine6PO4 (platform pLC): 0
- Fold Change, glutamate (platform pLC): 0.4341
- Fold Change, glutamine/lysine (platform pLC): 0.3981
- Fold Change, glutathione (platform pLC): −0.03348
- Fold Change, guanosine (platform pLC): 0.7598
- Fold Change, histidine (platform pLC): 0
- Fold Change, hydrocortisone (platform pLC): 0
- Fold Change, hypoxanthine (platform pLC): 0.2057
- Fold Change, itaconic acid dimes (platform pLC): 0
- Fold Change, kinetin (platform pLC): 0
- Fold Change, leucine/isoleucine/ (platform pLC): 0.2746
- Fold Change, luteolin (platform pLC): 0
- Fold Change, mannitol (platform pLC): 0.4543
- Fold Change, methionine (platform pLC): 0.3299
- Fold Change, mevalonic lactone (platform pLC): −0.4606
- Fold Change, niacinamide (platform pLC): 0
- Fold Change, nicotinic acid (platform pLC): −0.9989
- Fold Change, nopaline (platform pLC): 0
- Fold Change, ornithine (platform pLC): 0.5049
- Fold Change, phenylalanine (platform pLC): 0.4036
- Fold Change, phosphoenolpyruvate (platform pLC): 0
- Fold Change, pipecolic acid (platform pLC): 0.5237
- Fold Change, progesterone (platform pLC): 0
- Fold Change, proline (platform pLC): 0.6707
- Fold Change, pyridoxine (platform pLC): −0.1684
- Fold Change, riboflavin (platform pLC): 0
- Fold Change, selenoDLmethionine (platform pLC): 1.178
- Fold Change, serine (platform pLC): 0.2011
- Fold Change, sugar-phosphate (platform pLC): 0
- Fold Change, thiamine (platform pLC): 0
- Fold Change, threonine/homoserin (platform pLC): 0.3145
- Fold Change, thymine (platform pLC): 0
- Fold Change, tryptophan (platform pLC): 0
- Fold Change, tyrosine (platform pLC): 0.2347
- Fold Change, uric acid (platform pLC): 308
- Fold Change, urocanic acid (platform pLC): 0
- Fold Change, xanthosine(diH2O) (platform pLC): 0
- Fold Change, zeatin (platform pLC): 0
